The test deals with T1, RBL-1 5-lipoxygenase (Rattus norvegicus, UniProt P12527).
T1 construct: 5-Lipoxygenase enzyme was prepared as a 10,000g supernatant from RBL-1 cells; endogenous in cells; host or cells: RBL-1 cells (10,000g supernatant of the homogenate)
T1 sequence (P12527 1-673): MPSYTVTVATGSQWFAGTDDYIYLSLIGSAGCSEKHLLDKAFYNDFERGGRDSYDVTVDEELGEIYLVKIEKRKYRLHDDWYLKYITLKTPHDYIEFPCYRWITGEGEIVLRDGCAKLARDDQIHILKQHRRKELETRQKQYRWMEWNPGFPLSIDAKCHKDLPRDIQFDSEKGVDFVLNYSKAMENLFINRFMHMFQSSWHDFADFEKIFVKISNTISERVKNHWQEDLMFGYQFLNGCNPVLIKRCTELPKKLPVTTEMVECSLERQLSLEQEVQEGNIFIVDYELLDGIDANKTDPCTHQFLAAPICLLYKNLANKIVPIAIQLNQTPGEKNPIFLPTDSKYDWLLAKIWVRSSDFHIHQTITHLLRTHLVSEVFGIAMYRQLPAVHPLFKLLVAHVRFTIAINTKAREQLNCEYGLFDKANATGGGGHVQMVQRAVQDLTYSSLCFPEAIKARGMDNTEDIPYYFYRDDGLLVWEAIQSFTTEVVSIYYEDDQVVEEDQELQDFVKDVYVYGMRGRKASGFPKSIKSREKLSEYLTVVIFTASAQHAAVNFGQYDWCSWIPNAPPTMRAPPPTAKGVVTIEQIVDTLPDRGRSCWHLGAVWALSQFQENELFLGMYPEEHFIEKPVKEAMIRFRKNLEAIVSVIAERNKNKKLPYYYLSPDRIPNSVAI
The experiment in a line: RBL-1 5-lipoxygenase screen. The format is biochemical. Particulars: 10,000g supernatant from RBL-1 cells, formation of 5-HETE and 5,12-diHETE; for inhibition at 20 µM: compound concentration 20 µM; for inhibition at 0.05 µM: compound concentration 0.05 µM; for inhibition at 1 µM: compound concentration 1 µM. The procedure: 1) RBL-1 5-LIPOXYGENASE SCREEN
5-Lipoxygenase enzyme was prepared as a 10,000g supernatant from RBL-1 cells by the method of Jakschik (Jakschik, B.A., F.F. Sun, L.M. Lee, and M.M. Steinhoff, 1980, Biochem. Biophys. Res. Comm. 95, 103). The 10,000g supernatant was diluted with homogenization buffer to the equivaleni of 1.5 -2.5 x 10^7 cells. ml.-' and made 2mM with respect to CaCl2. Aliquots of 0.5ml were then dispensed into tubes, and incubated at 29°C with 5ul ethanol or compound in ethanol at the desired concentration for 2min. Then [1-"C] arachidonic acid was added in buffer to give a final concentration of 6.3uM and 0.2uCi per incubation, and the reaction continued at 29°C for 2 min. The reaction was terminated by adding 1ml of acetone and cooling on ice, 0.5ml of ice-cold saline and 100ul of 2N formic acid were added, and the mixture was extracted with 2 ^x 2ml of chloroform. The extract was stored under N, at -20°C until analysis by chromatography. Activity was measured as the percentage of total radioactivity found in 5-HETE and 5,12-diHETE, and inhibition calculated as the decrease information of the sum of these two species in compound-treated incubates relative to control incubations.

Counter-ions that a name gives are not always drawn.

Broadly, the inhibition is how much of the control response was suppressed. Low readings indicate a weak effect, high ones a strong effect. With `Cc1ccc(O)c(NCc2ccccc2)c1` [Example 3, 2-Phenylmethyfamino-4-methylphenol], the inhibition at 20 µM is 95.4%. For the compound `Cc1ccc(O)c(NCc2ccc(C#N)cc2)c1` [Example 5, 2-[(4-Cyanophenyl)methyl]amino-4-methylphenol], the inhibition at 0.05 µM came to 42.8%. Regarding `Cc1ccc(CNc2cc(C)ccc2O)cc1` [Example 6, 2-[(4-Methylphenyl)methyl]amino-4-methylphenol], 0.05 µM produced 93.4% inhibition. `COc1ccc(CNc2cc(C)ccc2O)cc1` [Example 7, 2-[(4-methoxyphenyl)methyl]amino-4-methylphenol] came in with an inhibition at 0.05 µM of 61.7%. On the same count and under the same terms, the result for `Cc1ccc(O)c(NCc2ccc(Cl)cc2)c1` [Example 8, 2-[(4-chlorophenyl)methyl]amino-4-methylphenol] reads 91.4%; that for `Cc1ccc(O)c(NCc2ccco2)c1` [Example 9, 2-[(2-furyl)methyl]amino-4-methylphenol], 31.4%; that for `Cc1ccc(O)c(NCc2cccc(C(F)(F)F)c2)c1` [Example 10, 2-[(3-trifluoromethylphenyl)methyl]amino-4-methylphenol], 89.5%. With `Cc1ccc(O)c(NCc2ccc(F)cc2)c1` [Example 11, 2-[(4-fluorophenyl)methyl]amino-4-methyl phenol], testing at 0.05 µM gave an inhibition of 93.2%. On to `Cc1ccc(O)c(NCc2ccc(Cl)c(Cl)c2)c1` [Example 12, 2-[(3,4 dichlorophenyl)methyl]amino-4-methyl phenol], for which the inhibition at 0.05 µM came to 73.7%. The same measure, in the same setting: the result for `Cc1ccc(O)c(NCc2cccs2)c1` [Example 13, 2-[(thien-2-yl)methyl]amino-4-methyl phenol] reads 49.7%; that for `Cc1ccc(O)c(NCc2ccc(Br)cc2)c1` [Example 14, 2-[(4-bromophenyl)methyl]amino-4-methyl phenol], 64.2%; that for `Cc1ccc(O)c(NCc2cccc(Cl)c2)c1` [Example 15], 85%.

In turn, `Cc1ccc(O)c(NCc2cccc(F)c2)c1` [Example 16, 2-[(3-fluorophenyl)methyl]amino-4-methyl phenol] came in with an inhibition at 0.05 µM of 76%. The same measure, in the same setting: the result for `Cc1ccc(O)c(NC(C)c2ccccc2)c1` (stereo not drawn) [Example 17, 2 -(α -Methylbenzyl)amino -4 -methylphenol] reads 34%. Still for that read-out and setting: in the case of `CC(C)c1ccc(O)c(NCc2ccccc2)c1` [Example 20, 2-phenylmethylamino-4-iso-propylphenol] it was 77%.

In turn, `CC(C)(C)c1ccc(O)c(NCc2ccccc2)c1` [Example 21, 2-phenylmethylamino-4-tert-butylphenol] had an inhibition at 0.05 µM of 35%. Take `Oc1ccc(Cl)cc1NCc1ccccc1` [Example 22, 2-phenylmethylamino-4-chlorophenol]: the inhibition at 0.05 µM came out at 81%. `Oc1ccc(Br)cc1NCc1ccccc1` [Example 23, 2-phenylmethylamino-4-bromophenol] registered an inhibition at 20 µM of 98%.

`CCc1ccc(O)c(NCc2ccccc2)c1` [Example 24, 2-phenylmethylamino-4-ethylphenol]: the inhibition at 0.05 µM was determined as 20%. Take `Cc1ccc(O)c(NCc2ccc([N+](=O)[O-])cc2)c1` [Example 25]: at 0.05 µM the inhibition was 80%.

As for `Cc1ccc(O)c(NCc2ccc(C(C)C)cc2)c1` [Example 26], the inhibition at 0.05 µM was found to be 80%. Take `Cc1ccc(O)c(NCc2ccc(O)cc2)c1` [Example 27, 2-[(4-hydroxyphenyl)methyl]amino-4-methylphenol]: the inhibition at 0.05 µM turned out to be 12%. Consider `Cc1ccc(O)c(NCCc2ccccc2)c1` [Example 28, 2-phenylethylamino-4-methylphenol], for which the inhibition at 0.05 µM was 86%.

As to `O=C(c1ccccc1)c1cc(NCc2ccccc2)c(O)cc1O` [Example 29, 4-Benzoyl-6-(Phenylmethylamino)resorcinol hydrochloride], the inhibition at 1 µM came out at 94%. Still for that read-out and setting: in the case of `Cc1ccc(O)c(N(Cc2ccccc2)Cc2ccccc2)c1` [Example 30, 2-Dibenzylamino-4-methylphenol] it was 91%.
